According to ChEMBL document CHEMBL3885881, “DrugMatrix”:

Organism: Rattus norvegicus
Assay: DrugMatrix - Regimen: Daily Repeat
Format: toxicity, organism-based, Sprague-Dawley
Design: regimen Daily Repeat, gender Male, age 6-8 weeks
Settings: in vivo, po, route oral GAVAGE, vehicle .5 % CMC; for ABSOLUTE BASOPHIL / ABSOLUTE EOSINOPHIL / ABSOLUTE LYMPHOCYTE / ABSOLUTE MONOCYTE / ABSOLUTE SEGMENTED NEUTROPHIL / BASOPHIL / EOSINOPHIL / ERYTHROCYTE COUNT / HEMATOCRIT / HEMOGLOBIN / LEUKOCYTE COUNT / LYMPHOCYTE / MEAN CORPUSCULAR HEMOGLOBIN / MEAN CORPUSCULAR HEMOGLOBIN CONCENTRATION / MEAN CORPUSCULAR VOLUME / MONOCYTE / NEUTROPHIL / NUCLEATED RED BLOOD CELLS / PLATELET COUNT: tissue Blood; for ALANINE AMINOTRANSFERASE / ALBUMIN / ALKALINE PHOSPHATASE / ASPARTATE AMINOTRANSFERASE / BLOOD UREA NITROGEN / CARBON DIOXIDE / CHLORIDE / CHOLESTEROL / CREATINE PHOSPHOKINASE / CREATININE / GLUCOSE / LACTATE DEHYDROGENASE / LIPASE / PHOSPHORUS / POTASSIUM / SODIUM / TOTAL BILIRUBIN / TOTAL PROTEIN / URIC ACID: tissue Plasma
[1] = 0 mg/kg, 72 h, dose level Control, time 3 day
[2] = 0 mg/kg, 120 h, dose level Control, time 5 day
[3] = 100 mg/kg, 72 h, dose level Low, time 3 day

CN/C(=N/CCSCc1nc[nH]c1C)NC#N [CIMETIDINE]
ABSOLUTE BASOPHIL [1]: 0 CELLS/uL | ABSOLUTE EOSINOPHIL [1]: 0 CELLS/uL | ABSOLUTE LYMPHOCYTE [1]: 12191.17 CELLS/uL | ABSOLUTE MONOCYTE [1]: 183.17 CELLS/uL | ABSOLUTE SEGMENTED NEUTROPHIL [1]: 1192.33 CELLS/uL | BASOPHIL [1]: 0% | EOSINOPHIL [1]: 0% | ERYTHROCYTE COUNT [1]: 5.51 x10E6/uL | HEMATOCRIT [1]: 35.45% | HEMOGLOBIN [1]: 13.82 G/DL | LEUKOCYTE COUNT [1]: 13.57 x10E3/uL | LYMPHOCYTE [1]: 89.83% | MEAN CORPUSCULAR HEMOGLOBIN [1]: 25.1 pg | MEAN CORPUSCULAR HEMOGLOBIN CONCENTRATION [1]: 38.98 G/DL | MEAN CORPUSCULAR VOLUME [1]: 64.42 fL | MONOCYTE [1]: 1.33% | NEUTROPHIL [1]: 8.83% | NUCLEATED RED BLOOD CELLS [1]: 0 /100WBC | PLATELET COUNT [1]: 1118.17 x10E3/uL | ALANINE AMINOTRANSFERASE [1]: 55 u/L | ALBUMIN [1]: 4.15 G/DL | ALKALINE PHOSPHATASE [1]: 449.5 u/L | ASPARTATE AMINOTRANSFERASE [1]: 112.83 u/L | BLOOD UREA NITROGEN [1]: 17.33 mg/dL | CARBON DIOXIDE [1]: 29.5 mmol/L | CHLORIDE [1]: 101 MEQ/L | CHOLESTEROL [1]: 70 mg/dL | CREATINE PHOSPHOKINASE [1]: 1325.83 u/L | CREATININE [1]: 0.18 mg/dL | GLUCOSE [1]: 171.5 mg/dL | LACTATE DEHYDROGENASE [1]: 386 u/L | LIPASE [1]: 10 u/L | PHOSPHORUS [1]: 11.57 mg/dL | POTASSIUM [1]: 6.21 MEQ/L | SODIUM [1]: 141.65 MEQ/L | TOTAL BILIRUBIN [1]: 0.15 mg/dL | TOTAL PROTEIN [1]: 5.75 G/DL | URIC ACID [1]: 1.28 mg/dL | ABSOLUTE BASOPHIL [2]: 0 CELLS/uL | ABSOLUTE EOSINOPHIL [2]: 138.17 CELLS/uL | ABSOLUTE LYMPHOCYTE [2]: 13283.17 CELLS/uL | ABSOLUTE MONOCYTE [2]: 303.83 CELLS/uL | ABSOLUTE SEGMENTED NEUTROPHIL [2]: 1308.17 CELLS/uL | BASOPHIL [2]: 0% | EOSINOPHIL [2]: 1% | ERYTHROCYTE COUNT [2]: 5.32 x10E6/uL | HEMATOCRIT [2]: 33.8% | HEMOGLOBIN [2]: 13.63 G/DL | LEUKOCYTE COUNT [2]: 15.03 x10E3/uL | LYMPHOCYTE [2]: 88.33% | MEAN CORPUSCULAR HEMOGLOBIN [2]: 25.68 pg | MEAN CORPUSCULAR HEMOGLOBIN CONCENTRATION [2]: 40.35 G/DL | MEAN CORPUSCULAR VOLUME [2]: 63.67 fL | MONOCYTE [2]: 1.83% | NEUTROPHIL [2]: 8.83% | NUCLEATED RED BLOOD CELLS [2]: 0 /100WBC | PLATELET COUNT [2]: 1097.5 x10E3/uL | ALANINE AMINOTRANSFERASE [2]: 54.5 u/L | ALBUMIN [2]: 4.27 G/DL | ALKALINE PHOSPHATASE [2]: 337 u/L | ASPARTATE AMINOTRANSFERASE [2]: 94.67 u/L | BLOOD UREA NITROGEN [2]: 17 mg/dL | CARBON DIOXIDE [2]: 28.33 mmol/L | CHLORIDE [2]: 101.5 MEQ/L | CHOLESTEROL [2]: 71.33 mg/dL | CREATINE PHOSPHOKINASE [2]: 628.17 u/L | CREATININE [2]: 0.19 mg/dL | GLUCOSE [2]: 177.83 mg/dL | LACTATE DEHYDROGENASE [2]: 500.5 u/L | LIPASE [2]: 9.5 u/L | PHOSPHORUS [2]: 12.3 mg/dL | POTASSIUM [2]: 5.63 MEQ/L | SODIUM [2]: 143.03 MEQ/L | TOTAL BILIRUBIN [2]: 0.2 mg/dL | TOTAL PROTEIN [2]: 6.02 G/DL | URIC ACID [2]: 1.5 mg/dL | ABSOLUTE BASOPHIL [3]: 0 CELLS/uL | ABSOLUTE EOSINOPHIL [3]: 0 CELLS/uL | ABSOLUTE LYMPHOCYTE [3]: 13567.33 CELLS/uL | ABSOLUTE MONOCYTE [3]: 279 CELLS/uL | ABSOLUTE SEGMENTED NEUTROPHIL [3]: 1153.67 CELLS/uL | BASOPHIL [3]: 0% | EOSINOPHIL [3]: 0% | ERYTHROCYTE COUNT [3]: 5.31 x10E6/uL | HEMATOCRIT [3]: 33.83% | HEMOGLOBIN [3]: 13.33 G/DL | LEUKOCYTE COUNT [3]: 15 x10E3/uL | LYMPHOCYTE [3]: 89.67% | MEAN CORPUSCULAR HEMOGLOBIN [3]: 25.1 pg | MEAN CORPUSCULAR HEMOGLOBIN CONCENTRATION [3]: 39.4 G/DL | MEAN CORPUSCULAR VOLUME [3]: 63.63 fL | MONOCYTE [3]: 2% | NEUTROPHIL [3]: 8.33% | NUCLEATED RED BLOOD CELLS [3]: 0 /100WBC | PLATELET COUNT [3]: 1282 x10E3/uL | ALANINE AMINOTRANSFERASE [3]: 53 u/L | ALBUMIN [3]: 4.17 G/DL | ALKALINE PHOSPHATASE [3]: 373 u/L | ASPARTATE AMINOTRANSFERASE [3]: 80.33 u/L | BLOOD UREA NITROGEN [3]: 17.67 mg/dL | CARBON DIOXIDE [3]: 30 mmol/L | CHLORIDE [3]: 100.33 MEQ/L | CHOLESTEROL [3]: 78.33 mg/dL | CREATINE PHOSPHOKINASE [3]: 276 u/L | CREATININE [3]: 0.18 mg/dL | GLUCOSE [3]: 159.67 mg/dL | LACTATE DEHYDROGENASE [3]: 157.33 u/L | LIPASE [3]: 10 u/L | PHOSPHORUS [3]: 10.93 mg/dL | POTASSIUM [3]: 6.04 MEQ/L | SODIUM [3]: 141.53 MEQ/L | TOTAL BILIRUBIN [3]: 0.17 mg/dL | TOTAL PROTEIN [3]: 5.77 G/DL | URIC ACID [3]: 1.33 mg/dL
